{"source": "patent US10238616B2", "about": "“Immunomodulator” (WAKUNAGA PHARMACEUTICAL CO., LTD., priority 2014, dated 2019)", "key": {"IgA production [1]": {"test_system": "IgA production", "test": "Promoting effect of IgA production (in vitro) <2>", "format": "cell-based, mouse", "conditions": "spleen lymphocytes of female C57BL/6N mice, 0.03, 0.1 and 0.3 mM, three days at 37° C.", "experimental": "(§1) Cells for the biological activity evaluation were prepared as follows. Female C57BL/6N mice for tests were purchased from CLEA Japan, Inc. After the purchase, the mice were acclimated for a week, and then sacrificed and the spleens were taken out. The excised spleens were crushed and passed through a mesh to collect lymphocytes, which were used as the cells for the evaluation test.\n(§2) Mouse IgA Quantitation Kit manufactured by Bethyl laboratories, Inc was purchased and the amount of IgA produced was measured. The wash solution or culture supernatant to be measured was placed in a 96-well plate coated with an anti-IgA antibody. After adding various reaction reagents, the absorbance was measured by using a plate reader.\nThe lymphocytes obtained from the cells for the evaluation test of (2) above were prepared at 5×10^6 cells/mL with a 10% serum-containing medium and inoculated into a 48-well plate at 200 μL each.\nTo the cells, chemically synthesized cis-S-1-propenycysteine and trans-S-1-propenycysteine, and S-1-propenycysteine (a cis/trans mixture) prepared in Production Example 2 were added at concentrations of 0.03, 0.1, and 0.3 mM, followed by culturing at 37° C. for three days. Subsequently, the amount of IgA produced in the culture supernatants was measured by ELISA."}, "IL-6 production [2]": {"test_system": "IL-6 production", "test": "Inhibitory effect on IL-6 production under LPS stimulation (in vitro) <2>", "format": "cell-based, mouse", "conditions": "spleen lymphocytes, 3 μg/mL Salmonella-derived LPS, 0.3 mM, 24 hours at 37° C.", "experimental": "as §1\n(§3) Mouse IL-6 ELISA Ready-SET-Go! Kit manufactured by eBioscience was purchased and the amount of IL-6 produced was measured. The culture supernatant to be measured was placed in a 96-well plate coated with an anti-IL-6 antibody. After adding various reaction reagents, the absorbance was measured by using a plate reader.\nThe lymphocytes obtained from the cells for the evaluation test of (2) above were prepared at 5×10^6 cells/mL with a 10% serum-containing medium and inoculated into a 48-well plate at 200 μL each. To these cells, chemically synthesized cis-S-1-propenycysteine and trans-S-1-propenycysteine, SAC, and S-1-propenycysteine (a cis/trans mixture) prepared in Production Example 2 were added at a concentration of 0.3 mM in the presence of 3 μg/mL Salmonella-derived lipopolysaccharides (LPS), followed by culturing at 37° C. for 24 hours. Upon completion of culture, the supernatants were collected and the amount of IL-6 was measured by ELISA."}, "IgA": {"test_system": "IgA", "test": "Promoting effect of IgA production (in vivo) <1>: IgA in intestinal lavage fluids", "design": "species or system mouse", "conditions": "female C57BL/6N mice, oral administration for five days, compared with water administration group", "experimental": "(§4) Animals for the biological activity evaluation were reared as follows. Female C57BL/6N mice for tests were purchased from CLEA Japan, Inc. After the purchase, the mice were acclimated for a week, and then used as the animals for the evaluation test.\nas §2\nThe animals for the evaluation test of (3) above were orally administered with the sample prepared in (1) (b) above for five days, and then sacrificed and the small intestines were removed. Phosphate buffer (5 mL) was passed through the small intestines and the contents of the small intestines and the lavage fluids collected. The collected products were combined and centrifuged, and the amount of IgA in the resulting supernatant was quantified by ELISA."}, "IL-6 production [3]": {"test_system": "IL-6 production", "test": "Inhibitory effect on IL-6 production under LPS stimulation (in vitro) <1>", "format": "cell-based, mouse", "conditions": "spleen lymphocytes, 1 μg/mL Escherichia coli 055-derived LPS, 0.1 mM", "experimental": "as §1, §3\n(§5) The lymphocytes obtained from the cells for the evaluation test of (2) above were prepared at 1×10^6 cells/mL with a 10% serum-containing medium and inoculated into a 24-well plate at 1 mL each. Subsequently, Escherichia coli 055-derived lipopolysaccharides (LPS) were added at 1 μg/mL, and then the samples prepared in (1) (b) above were added at 0.1 mM, followed by culturing at 37° C. for 24 hours or three days. Upon completion of culture, the supernatants were collected and the amounts of IL-6 and IgA were measured by ELISA."}, "IgA production [4]": {"test_system": "IgA production", "test": "Promoting effect of IgA production (in vitro) <1>", "format": "cell-based, mouse", "conditions": "spleen lymphocytes of female C57BL/6N mice, 0.1 mM, three days at 37° C., compared with other sulfur-containing amino acid compounds", "experimental": "as §1, §2\nThe lymphocytes obtained from the cells for the evaluation test of (2) above were prepared at 1×10^6 cells/mL with a 10% serum-containing medium and inoculated into a 24-well plate at 1 mL each, or prepared at 1×10^6 cells/200 μL and inoculated into a 48-well plate at 200 μL each. Subsequently, of the samples prepared in (1) above, those prepared in (1) (a) above were appropriately diluted and added to the 24-well plate so that the final concentration was 4 mg/mL, and those prepared in (1) (b) was added to the 48-well plate at 0.1 mM. After culturing for three days at 37° C., the supernatants were collected and the amount of IgA was measured by ELISA."}, "IgA-producing B cells [5]": {"test_system": "IgA-producing B cells", "test": "Promoting effect of IgA production (in vivo) <3>: IgA-producing B cells in the peritoneal cavity", "design": "species or system mouse", "conditions": "female C57BL/6N mice, oral administration for five days, compared with water administration group", "experimental": "as §4\nThe animals for the evaluation test of (3) above were orally administered with the sample prepared in (1) (b) above for five days. The animals were sacrificed and a laparotomy was performed without breaking the peritoneum. Then, 3 mL of 5% FBS-containing Hank's Balanced Salt Solution was placed in a 5 mL syringe and injected into the peritoneal cavity using a 27G needle. Then, the peritoneum was pressed with fingers to spread the injected solution evenly throughout the peritoneal cavity, followed by collecting the intraperitoneal solution using a 18G needle. The intraperitoneal solution thus collected was centrifuged at 1,500 rpm for five minutes. The resulting supernatant was removed and peritoneal cells were collected. […] Upon completion of treatment, 1×10^4 lymphocytes were analyzed by using a flow cytometer to count the number of IgA-producing B cells which reacted to the anti-mouse CD45 antibody (B220) and the anti-mouse immunoglobulin A antibody."}, "IgA-producing B cells [6]": {"test_system": "IgA-producing B cells", "test": "Promoting effect of IgA production (in vivo) <2>: IgA-producing B cells in Peyer's patches", "design": "species or system mouse", "conditions": "female C57BL/6N mice, oral administration for five days, compared with water administration group", "from_the_text": "as §4\nThe animals for the evaluation test of (3) above were orally administered with the sample prepared in (1) (b) above for five days, and then sacrificed. The small intestines were removed, from which Peyer's patches were collected. The Peyer's patches were ground, to which Collagenase D was added to give a final concentration of 1 mg/mL and DNAase I was added to give a final concentration of 20 μg/mL. Treatment was continued for 30 minutes while shaking at 37° C., followed by centrifugation at 1,500 rpm. The resulting supernatant was removed. Then, 2 mL of 5% FBS-containing Hank's Balanced Salt Solution containing 5 mM EDTA was added, followed by treatment for five minutes while shaking at 37° C. Upon completion of treatment, the resultant was passed through a 40 μm mesh to remove tissue pieces and collect lymphocytes. […] Upon completion of treatment, 1×10^4 lymphocytes were analyzed by using a flow cytometer to count the number of IgA-producing B cells which reacted to the anti-mouse CD45 antibody (B220) and the anti-mouse immunoglobulin A antibody."}, "IgA production [7]": {"test_system": "IgA production", "test": "Promoting effect on IgA production under LPS stimulation (in vitro) <1>", "format": "cell-based, mouse", "conditions": "spleen lymphocytes, 1 μg/mL Escherichia coli 055-derived LPS, 0.1 mM, compared with no stimulation", "experimental": "as §1, §2, §5"}}, "data": [{"molecule": "C/C=C\\SC[C@H](N)C(=O)O", "note": "[cis-S-1-propenycysteine, cis-S-1-Propenylcysteine]", "values": [{"measurement": "amount of IgA produced in culture supernatants (ELISA), FIG. 8", "setting": "IgA production [1]", "result": "virtually did not affect IgA production"}]}, {"molecule": "C/C=C/SC[C@H](N)C(=O)O", "note": "[trans isomer, trans-S-1-Propenylcysteine]", "values": [{"measurement": "IL-6 secretion induced by LPS stimulation (ELISA), FIG. 9", "setting": "IL-6 production [2]", "result": "significantly inhibited IL-6 secretion"}, {"measurement": "amount of IgA produced in culture supernatants (ELISA), FIG. 8", "setting": "IgA production [1]", "result": "significantly enhanced IgA production"}]}, {"molecule": "CC=CSCC(N)C(=O)O", "note": "(centres unmarked) [S-1-propenycysteine, S-1-propenylcysteine]", "values": [{"measurement": "amount of IgA in the intestinal lavage fluids (ELISA), FIG. 3", "setting": "IgA", "result": "increased"}, {"measurement": "amount of IL-6 secretion induced by LPS stimulation (ELISA), FIG. 7", "setting": "IL-6 production [3]", "result": "reduced"}, {"measurement": "IL-6 secretion induced by LPS stimulation (ELISA), FIG. 9", "setting": "IL-6 production [2]", "result": "significantly inhibited IL-6 secretion"}, {"measurement": "amount of IgA in culture supernatant (ELISA), FIG. 2", "setting": "IgA production [4]", "result": "promoted IgA production more strongly than other sulfur-containing amino acid compounds"}, {"measurement": "amount of IgA produced in culture supernatants (ELISA), FIG. 8", "setting": "IgA production [1]", "result": "significantly enhanced IgA production"}, {"measurement": "number of IgA-producing B cells in the peritoneal cavity (flow cytometer), FIG. 5", "setting": "IgA-producing B cells [5]", "result": "increased"}, {"measurement": "number of IgA-producing B cells in Peyer's patches (flow cytometer), FIG. 4", "setting": "IgA-producing B cells [6]", "result": "increased"}, {"measurement": "amount of IgA under LPS stimulation (ELISA), FIG. 6", "setting": "IgA production [7]", "result": "higher promoting effect on IgA production than under no stimulation"}]}]}
